For five compounds, Activity and MIC results are on record in ChEMBL document CHEMBL4699572, “Identification of Antifungal Bisphosphocholines from Medicinal Gentiana Species” (2020).

Active and inactive are the calls of the source. The rule behind the calls is not given here.

What all share (assay type): functional
One assay has as its system Cryptococcus neoformans. Description: Antifungal activity against Cryptococcus neoformans ATCC 90113 assessed as reduction in microbial growth after 72 hrs by CLSI based method.
For another assay, the system named is Aspergillus fumigatus. Description: Antifungal activity against Aspergillus fumigatus ATCC 204305 assessed as reduction in microbial growth after 72 hrs by CLSI based method.
In another assay the test system is Candida albicans. Description: Antifungal activity against Candida albicans ATCC 90028 assessed as reduction in microbial growth after 18 to 24 hrs by CLSI based method. To be noted: time hrs 18-24.
For a further assay, the system named is Nakaseomyces glabratus. The assay can be described thus: Antifungal activity against Candida glabrata ATCC 90030 assessed as reduction in microbial growth after 18 to 24 hrs by CLSI based method. To be noted: time hrs 18-24.

In the case of `C[N+](C)(C)CCOP(=O)([O-])OCCCCCCCCCCCCCCCCCCCCCCCCOP(=O)([O-])OCC[N+](C)(C)C`, the result in the assay with Cryptococcus neoformans, in the assay with Aspergillus fumigatus, with Candida albicans and in the assay with Nakaseomyces glabratus was inactive.
Take `C[N+](C)(C)CCOP(=O)([O-])OCCCCCCCCCCCCCCCCCCCCCCCOP(=O)([O-])OCC[N+](C)(C)C`: the outcome with Cryptococcus neoformans, in the assay on Aspergillus fumigatus, with Candida albicans and in the assay with Nakaseomyces glabratus was inactive.
In general, MIC refers to the lowest concentration found to suppress growth. On to `C[N+](C)(C)CCOP(=O)([O-])OCCCCCCCCCCCCCCCCCCCCCCOP(=O)([O-])OCC[N+](C)(C)C`, for which the MIC with Cryptococcus neoformans is 0.63 µg/mL; in the assay with Aspergillus fumigatus, 1.25 µg/mL; in the assay on Candida albicans, 10 µg/mL; with Nakaseomyces glabratus, 5 µg/mL.
Regarding `C[N+](C)(C)CCOP(=O)([O-])OCCCCCCCCCCCCCCCCCCCCCOP(=O)([O-])OCC[N+](C)(C)C`, the outcome with Cryptococcus neoformans, with Aspergillus fumigatus, in the assay on Candida albicans and with Nakaseomyces glabratus was inactive.
As to `C[C@@H]1[C@H](O)[C@@H](C)/C=C/C=C/C=C/C=C/C=C/C=C/C=C/[C@H](O[C@@H]2O[C@H](C)[C@@H](O)[C@H](N)[C@@H]2O)C[C@@H]2O[C@](O)(C[C@@H](O)C[C@@H](O)[C@H](O)CC[C@@H](O)C[C@@H](O)CC(=O)O[C@H]1C)C[C@H](O)[C@H]2C(=O)O` [AMPHOTERICIN B], the minimum inhibitory concentration (MIC) in the assay on Cryptococcus neoformans was determined as 0.63 µg/mL; in the assay with Aspergillus fumigatus, 2.5 µg/mL.
